Calls of active or inactive are those of the source. The calls are words filed in the database; no cut-off is given here.
What was measured:
MDA-MB-435 = assay: Antiproliferative activity against human MDA-MB-435 cells assessed as cell viability at 1 ng/ml after 96 hrs; assay type: functional; conditions: MDA-MB-435, 96 h, read-out: Activity
Pseudomonas aeruginosa = assay: Antibacterial activity against Pseudomonas aeruginosa at 10 ug/ml; assay type: functional, organism-based
Acinetobacter baumannii = assay: Antibacterial activity against Acinetobacter baumannii at 10 ug/ml; assay type: functional, organism-based
Enterococcus faecalis = assay: Antibacterial activity against Enterococcus faecalis at 10 ug/ml; assay type: functional, organism-based
[1] = tested on: Mycolicibacterium smegmatis; assay: Antibacterial activity against Mycobacterium smegmatis at 10 ug/ml; assay type: functional, organism-based
Staphylococcus aureus = assay: Antibacterial activity against Staphylococcus aureus at 10 ug/ml; assay type: functional, organism-based
Streptococcus pneumoniae = assay: Antibacterial activity against Streptococcus pneumoniae at 10 ug/ml; assay type: functional, organism-based
Escherichia coli = assay: Antibacterial activity against Escherichia coli at 10 ug/ml; assay type: functional, organism-based

Row | SMILES | viability at 0.001 µg/mL (MDA-MB-435) | Activity (Pseudomonas aeruginosa) | Activity (Acinetobacter baumannii) | Activity (Enterococcus faecalis) | Activity [1] | Activity (Staphylococcus aureus) | Activity (Streptococcus pneumoniae) | Activity (Escherichia coli)
1 | CC[C@]1(O)C[C@@H]2CN(CCc3c([nH]c4ccccc34)[C@@](C(=O)OC)(c3cc4c(cc3OC)N(C)[C@H]3[C@@](O)(C(=O)OC)[C@H](OC(C)=O)[C@]5(CC)C=CCN6CC[C@]43[C@@H]65)C2)C1 [VINBLASTINE] | 49% | – | – | – | – | – | – | –
2 | C/C=C1/NC(=O)[C@H](C(C)C)NC(=O)[C@H](O)[C@@H]([C@@H](C)CCCCCCCCCCC(=O)CCC)NC(=O)[C@@H]2CCCN2C(=O)[C@H](CC(N)=O)N(C)C(=O)[C@H]([C@@H](C)OC)NC(=O)CNC(=O)[C@H](CCC(N)=O)NC(=O)[C@H]([C@@H](C)O)NC(=O)[C@H]([C@@H](C)O)NC1=O | – | inactive | inactive | inactive | inactive | inactive | inactive | inactive
3 | C/C=C1/NC(=O)[C@H](C(C)C)NC(=O)[C@H](O)[C@@H]([C@@H](C)CCCCCCCCCCC(=O)CCC)NC(=O)[C@@H]2CCCN2C(=O)[C@H](CC(N)=O)N(C)C(=O)[C@H]([C@@H](C)OC)NC(=O)[C@@H](C)NC(=O)[C@H](CCC(N)=O)NC(=O)[C@H]([C@@H](C)O)NC(=O)[C@H]([C@@H](C)O)NC1=O | – | inactive | inactive | inactive | inactive | inactive | inactive | inactive
4 | C/C=C1/NC(=O)[C@H](C(C)C)NC(=O)[C@H](O)[C@@H]([C@@H](C)CCCCCCCCCCC(O)CCC)NC(=O)[C@@H]2CCCN2C(=O)[C@H](CC(N)=O)N(C)C(=O)[C@H]([C@@H](C)OC)NC(=O)[C@@H](C)NC(=O)[C@H](CCC(N)=O)NC(=O)[C@H]([C@@H](C)O)NC(=O)[C@H]([C@@H](C)O)NC1=O (stereo partly drawn) | – | inactive | inactive | inactive | inactive | inactive | inactive | inactive
5 | C/C=C1/NC(=O)[C@H](C(C)C)NC(=O)[C@H](O)[C@@H]([C@@H](C)CCCCCCCCCCC(=O)CCC)NC(=O)[C@@H]2CCCN2C(=O)[C@H](CC(N)=O)N(C)C(=O)[C@H]([C@@H](C)OC)NC(=O)[C@@H](C)NC(=O)[C@H](CCC(N)=O)NC(=O)[C@H](C(C)C)NC(=O)[C@H]([C@@H](C)O)NC1=O | – | inactive | inactive | inactive | inactive | inactive | inactive | inactive
6 | C/C=C1/NC(=O)[C@H](C(C)C)NC(=O)[C@H](O)[C@@H]([C@@H](C)CCCCCCCC(Cl)CC)NC(=O)[C@@H]2CCCN2C(=O)[C@H](CC(N)=O)N(C)C(=O)[C@H]([C@@H](C)OC)NC(=O)CNC(=O)[C@H](CCC(N)=O)NC(=O)[C@H]([C@@H](C)O)NC(=O)[C@H]([C@@H](C)O)NC1=O (stereo partly drawn) | – | inactive | inactive | inactive | inactive | inactive | inactive | inactive
7 | C/C=C1/NC(=O)[C@H](C(C)C)NC(=O)[C@H](O)[C@@H]([C@@H](C)CCCCCCCC(Cl)CC)NC(=O)[C@@H]2CCCN2C(=O)[C@H](CC(N)=O)N(C)C(=O)[C@H]([C@@H](C)OC)NC(=O)[C@@H](C)NC(=O)[C@H](CCC(N)=O)NC(=O)[C@H]([C@@H](C)O)NC(=O)[C@H]([C@@H](C)O)NC1=O (stereo partly drawn) | – | inactive | inactive | inactive | inactive | inactive | inactive | inactive
